In article PMC9544171, “Glucose‐dependent insulinotropic polypeptide receptor antagonist treatment causes a reduction in weight gain in ovariectomised high fat diet‐fed mice” (British Journal of Pharmacology, 2022):
Where a SMILES comes first, the peptide text is derived from it. The star is where a group is joined. C16 diacid = O=C(O)CCCCCCCCCCCCCCC(=O)*

Experiments:
[1] = test system: Female ovariectomised C57Bl6/J mice; assay: HFD study in ovariectomised mice, body weight and composition, 8 weeks; assay type: in vivo, mouse
Protocol: Prior to bilateral ovariectomy surgery and once daily for 48 h following, mice received analgesics through s.c. injection of carprofen (Rimadyl; 5 mg·kg^−1). Anaesthesia was induced in an induction chamber with 5% isoflurane and maintained with 2% isoflurane through a nose cone during the procedure. Proper respiration was ensured with a flow of oxygen through the nose cone and body temperature was maintained at 37°C by placing the mice on a heating pad. Mice were placed in a prone position on a sterile surgery pad and the area of incision was shaved and sterilized with 70% ethanol. Two dorsal‐lateral incisions were made and the ovary and attached fat pad were individually pulled out of the abdominal cavity. The fallopian tubes were ligated and the ovaries were dissected, then the fat pad was carefully placed back in the abdominal cavity. The skin incision was closed using wound clips (Reflex, Alzet, Cupertino, CA, USA). In half of the animals, a microtransponder (Datamars, Lamone, Switzerland) was inserted and animals were placed in an HM‐2 cage with the intention to measure food intake (MBrose, Faaborg, Denmark) and left to recover and acclimatize for a week. The remaining animals were placed back in their home cages to recover for a week. The division of mice into HM‐2 cages and home cages was randomized. Uterine atrophy was confirmed in all mice upon termination of the study, indicating successful ovariectomy.
A week after ovariectomy, at 10 weeks of age, animals were randomized into groups and placed on a 60 kcal% HFD (HFD, D12492, Research Diets, New Brunswick, NJ, USA) or a control diet (10 kcal% fat, D12450J, Research Diets) for 8 weeks. Group sizes were as follows: Vehicle/control diet, n = 12; mGIPAnt‐1/control diet, n = 12; Vehicle/HFD, n = 11; mGIPAnt‐1/HFD, n = 12. The reduction of animal numbers in group Vehicle/HFD was due to unexpected loss of an animal. Animals received a daily s.c. injection at 4:30 PM with mGIPAnt‐1 (300‐nmol·kg^−1) or vehicle. Body weight and body composition were assessed weekly (LF90II body composition analyzer, Bruker, Billerica, MA, USA). On the final experimental day, animals were anaesthetized with an intraperitoneal injection of 90 mg·kg^−1 ketamine and 10‐mg·kg^−1 xylazine. The microchip was quickly removed from HM‐2 cage animals and a final body composition measurement was performed on all animals. A terminal retro‐orbital blood sample was taken, mice were killed through cervical dislocation and tissues were quickly dissected and weighed.

[2] = Pharmacokinetic analysis after s.c. administration, plasma radioimmunoassay; assay type: in vivo; conditions: sc, female C57Bl/6 mice, single s.c. 300 nmol·kg−1 (6 nmol per mouse), in‐house radioimmunoassay
Protocol: To assess mGIPAnt‐1 half‐life following subcutaneous (s.c.) administration, mice (n = 6) received a single s.c. administration of 300‐nmol·kg^−1 mGIPAnt‐1. Retro‐orbital blood samples (50 μl) were taken using EDTA coated glass capillaries at (1) t = 0, 0.5, 1, 1.5, 2 and 2.5 h, (2) t = 2.5, 3, 4, 6, 8 and 22 h, or (3) t = 22, 24, 26, 28, 30 and 32 h and immediately added to Eppendorf tubes (Eppendorf, Hamburg, Germany) and centrifuged at 3500g, 20 min, 4°C. Plasma was transferred into Eppendorf tubes on dry ice and stored at −20°C for analysis.
mGIPAnt‐1 levels were measured by an in‐house radioimmunoassay using a polyclonal antibody recognizing a mid‐regional part of GIP (code no. 95234) (Gasbjerg et al., [2017]). mGIPAnt‐1 was used as standard and the assay buffer was a 80‐mM phosphate buffer pH 7.5, containing (in final concentrations) 0.1% HSA, 10‐mM EDTA, 500‐KIU ml^−1 aprotinin and 0.01‐mM valine pyrrolidide. Samples were carefully diluted to ensure that samples would fall within the measurable range of the assay. […]
Results are presented as mean ± SE. Data were analysed with one‐way and two‐way analysis of variance (ANOVA) with Tukey's or Sidak multiple comparisons test and Student's unpaired t tests where appropriate. […] For the in vitro data IC50 values were determined by nonlinear regression using GraphPad Prism 9 (San Diego, California, USA). […]

[3] = test system: Female C57Bl6/J mice; assay: Intraperitoneal glucose tolerance test, inhibition of exogenous GIP; assay type: in vivo, mouse
Protocol: To assess the biological activity of mGIPAnt‐1, we performed an intraperitoneal glucose tolerance test. Mice were fasted for 4 h and given either mGIPAnt‐1 ([…]; s.c.) or vehicle at t = −90 min. Group sizes were as follows:‐ Vehicle + Vehicle, n = 10, Vehicle + GIP, n = 12 and mGIPAnt‐1 + GIP, n = 8. Varying group numbers were due to unsuccessful administration of one of the four compounds as confirmed by measurements of plasma concentrations. At t = −10 all mice were given an intraperitoneal (i.p.) injection with dipeptidyl peptidase‐4 (DPP‐4) inhibitor valine pyrrolidide followed by s.c. injection of either 25 nmol·kg^−1 GIP (Synthetic mouse GIP(1‐42) or vehicle. At t = 0 min, mice received an i.p. injection with 0.5‐g·kg^−1 glucose. Blood glucose was measured from the tail vein using a hand‐held glucometer (Accu‐Chek Mobile, Roche, Basel, Switzerland) at t = 0, 10, 30, 45, 60, 120 and 180 min. Retro‐orbital blood samples (50 μl) were taken using EDTA coated glass capillaries (Vitrex, Vasekær, Denmark) at t = 0, 15, 30 and 60, 120 and 180 min and centrifuged at 3500g, 20 min, 4°C. Plasma was transferred into Eppendorf tubes on dry ice and stored at −20°C for later insulin measurements.
To facilitate comparisons of assay outputs (cAMP assays), the results (of duplicate measurements) were normalized, with the response to 10 pM of GIP(1‐42) set as 100%. All ligand concentrations are reported as log‐transformed. The IC50 log values can be found in Figure 1. In Figure 3c, we have subtracted glucose levels from baseline to show the net differences in glucose levels in our different treatment groups.

## CC[C@H](C)[C@H](NC(=O)[C@H](CO)NC(=O)[C@H](Cc1ccc(O)cc1)NC(=O)[C@H](CC(=O)O)NC(=O)[C@H](CO)NC(=O)[C@@H](NC(=O)[C@H](Cc1ccccc1)NC(=O)[C@@H](NC(=O)CNC(=O)[C@@H](N)CCC(=O)O)[C@@H](C)O)[C@@H](C)CC)C(=O)N[C@@H](C)C(=O)N[C@@H](CCSC)C(=O)N[C@@H](CC(=O)O)C(=O)N[C@@H](CCCCN)C(=O)N[C@H](C(=O)N[C@@H](CCCCNC(=O)CCCCCCCCCCCCCCC(=O)O)C(=O)N[C@@H](CCC(N)=O)C(=O)N[C@@H](CCC(N)=O)C(=O)N[C@@H](CC(=O)O)C(=O)N[C@@H](Cc1ccccc1)C(=O)N[C@H](C(=O)N[C@@H](CC(N)=O)C(=O)N[C@@H](Cc1c[nH]c2ccccc12)C(=O)N[C@@H](CC(C)C)C(=O)N[C@@H](CC(C)C)C(=O)N[C@@H](C)C(=O)N[C@@H](CCC(N)=O)C(=O)N[C@@H](CCCCN)C(=O)NCC(=O)N[C@@H](CCCCN)C(=O)N[C@@H](CCCCN)C(=O)N[C@@H](CC(N)=O)C(=O)N[C@@H](CC(=O)O)C(=O)N[C@@H](Cc1c[nH]c2ccccc12)C(=O)N[C@@H](CCCCN)C(=O)N[C@@H](Cc1c[nH]cn1)C(=O)N[C@@H](CC(N)=O)C(=O)O)C(C)C)[C@@H](C)CC [mGIPAnt‐1] (H-EGTFISDYSIAMDKIK(C16 diacid)QQDFVNWLLAQKGKKNDWKHN-OH)
[1]; 300 nmol·kg−1 s.c. daily, 8 weeks
  final lean body mass: not affected
[1]; 300 nmol·kg−1 s.c. daily, 8 weeks, 60 kcal% HFD, versus Vehicle/HFD, n = 11–12
  body weight, HFD: body weight in the control, HFD group was significantly higher compared to the mGIPAnt‐1/HFD group
[1]; 300 nmol·kg−1 s.c. daily, 8 weeks, control diet, n = 12
  absolute body weight, control diet: not affected
[1]; 300 nmol·kg−1 s.c. daily, 8 weeks, two‐way ANOVA
  total body weight gain, overall treatment effect: reducing total body weight gain
[1]; at 6 and 8 weeks, 300 nmol·kg−1 s.c. daily, versus Control/HFD, n = 6
  body fat percentage, HFD: Control/HFD animals significantly increased body fat percentage compared to mGIPAnt‐1/HFD animals
[1]; terminal
  BAT weight: not affected
  eWAT weight, control diet: did not affect
  iWAT weight, control diet: did not affect
  liver weight: not affected
[1]; terminal, versus Vehicle/HFD
  eWAT weight, HFD: reduced
  iWAT weight, HFD: reduced
[2]; calculated between t = 1.5 h and 32 h, n = 6
  half-life: ~432 min
[2]; n = 6, read-out: time of peak plasma concentration
  Tmax: 1.5 h
[3]; mGIPAnt‐1 25 μmol·kg−1 s.c. at t = −90 min, 4 h fasted mice, versus the other two groups
  fasting (baseline) blood glucose at t = 0 of IPGTT: significant decrease in fasting blood glucose levels
[3]; mGIPAnt‐1 25 μmol·kg−1 s.c. t = −90 min, GIP 25 nmol·kg−1 s.c. and val‐pyr t = −10 min, glucose 0.5 g·kg−1 i.p., n = 8–12
  baseline‐subtracted glucose curve during IPGTT: did not differ
[3]; t = 120 and 180 min, same dosing as glucose curve
  glucose levels relative to baseline late in IPGTT: glucose levels do not drop below baseline
